What was measured:
[1] = Inhibition of LPA-induced intracellular Ca2+ concentration increase (FLIPR); type: cell-based; details: LPA final concentration 5 μM; rat hepatic stellate cell derived myofibroblast like clone; Fluo-3, FLIPR
From the text: (1) Establishment of Myofibroblast Like Cell Strain Derived from Rat Hepatic Stellate Cell Fraction A stellate cell fraction was obtained from the liver of male Wistar rat according to a conventional method (European J. Biochem., 1993, vol. 213, p. 815). After subculture for several generations, the cell was cloned by limiting dilution. Well grown 24 clones that formed colonies were isolated. These clones were stained with αSMA antibody and confirmed to be all positive and to have Myofibroblast like properties. […] (2) Measurement of Cell Activation (Intracellular Ca^2+ Concentration Increasing Action)-Inhibitory Activity The above-mentioned cells were cultured overnight in a 384 well plate at 24,000 cells/well and the medium was removed. An assay buffer (0.1% BSA, 20 mM HEPES, 1×HBSS, 2.5 mM Probenecid) containing 4 μM of Fluo-3, AM (Biotium) was added, and the cells were stained at 37° C. for 1 hour. Following the buffer containing the dye reagent was removed, and an assay buffer was added, intracellular Ca^2+ concentration was measured with FLIPR (Molecular Devices). Adding a test substance and LPA at the final concentration of 5 μM, the inhibitory action of the test substance on the increase in the intracellular Ca^2+ concentration by LPA was examined. The increase in the intracellular Ca^2+ concentration by LPA addition without test substance was taken as 100%, that without the addition of LPA was taken as 0%, and the substrate's concentration (IC50) at inhibiting increase in the intracellular Ca^2+ concentration by 50% was determined.

EDG2 = EDG2 (Homo sapiens, UniProt Q92633); details: as described in WO01/060819; cited from earlier work
EDG2, sequence (Q92633 whole entry): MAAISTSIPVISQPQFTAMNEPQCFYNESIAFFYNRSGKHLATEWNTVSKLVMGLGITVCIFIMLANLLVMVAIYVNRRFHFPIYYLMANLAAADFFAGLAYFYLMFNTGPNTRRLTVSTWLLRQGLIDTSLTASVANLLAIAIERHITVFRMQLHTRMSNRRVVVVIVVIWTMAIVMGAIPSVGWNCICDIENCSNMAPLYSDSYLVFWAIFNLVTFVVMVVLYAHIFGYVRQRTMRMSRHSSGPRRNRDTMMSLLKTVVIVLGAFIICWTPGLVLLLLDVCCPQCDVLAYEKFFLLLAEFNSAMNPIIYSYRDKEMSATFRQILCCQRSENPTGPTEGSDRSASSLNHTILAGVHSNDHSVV

[2] = system: peripheral circulation disorder model induced by lactic acid; details: animal model of peripheral arterial obstruction; as described in WO01/060819; cited from earlier work

| Structure (SMILES) | IC50 [1] [nM] | EDG2 antagonistic action (EDG2) | action in peripheral circulation disorder model induced by lactic acid [2] |
| --- | --- | --- | --- |
| CC(OC(=O)Nc1conc1-c1ccc(CS(=O)(=O)CCC(=O)O)cc1)c1ccccc1Cl (stereo not drawn) [Compound 11, 3-(4-{4-[1-(2-chlorophenyl)ethoxycarbonylamino]-3-isoxazolyl}benzylsulfonyl)propionic acid] | 115 | – | – |
| CC(CCCc1ccc(-c2nocc2NC(=O)O[C@H](C)c2ccccc2Cl)cc1)C(=O)O (stereo partly drawn) [Compound 34, 5-(4-{4-[(1R)-1-(2-chlorophenyl)ethoxycarbonylamino]-3-isoxazolyl}phenyl)-2-methylpentanoic acid] | 102 | – | – |
| C[C@@H](OC(=O)Nc1conc1-c1ccc(CCSCCC(=O)O)cc1)c1ccccc1Cl [Compound 29, {3-[2-(4-{4-[(1R)-1-(2-chlorophenyl)ethoxycarbonylamino]-3-isoxazolyl}phenyl)ethyl]thio}propionic acid] | 29 | – | – |
| CC(OC(=O)Nc1conc1-c1ccc(CCSCCC(=O)O)cc1)c1ccccc1Cl (stereo not drawn) [Compound 15, {3-[2-(4-{4-[1-(2-chlorophenyl)ethoxycarbonylamino]-3-isoxazolyl}phenyl)ethyl]thio}propionic acid] | 44 | – | – |
| C[C@@H](OC(=O)Nc1conc1-c1ccc(CSCCC(=O)O)cc1)c1ccccc1Cl [Compound 3, 3-(4-{4-[(1R)-1-(2-chlorophenyl)ethoxycarbonylamino]-3-isoxazolyl}benzylsulfanyl)propionic acid] | 22 | – | – |
| COC(=O)CCSCc1ccc(-c2onc(C)c2NC(=O)OC(C)c2ccccc2Cl)cc1 (stereo not drawn) [Example 115, methyl 3-([4-[4-([[1-(2-chlorophenyl)ethoxy]carbonyl]amino)-3-methyl-5-isoxazolyl]benzyl]-sulfanyl)propanoate] | 836 | strong EDG2 antagonistic action | improving action |
| CC(OC(=O)Nc1conc1-c1ccc(CS(=O)(=O)CCC(=O)O)cc1)C1=C(Cl)CCCC1 (stereo not drawn) [Compound 13, 3-(4-{4-[1-(2-chloro-1-cyclohexenyl)ethoxycarbonylamino]-3-isoxazolyl}benzylsulfonyl)propionic acid] | 104 | – | – |
| C[C@@H](OC(=O)Nc1conc1-c1ccc(CCCCCC(=O)O)cc1)c1ccccc1Cl [Compound 32, 6-(4-{4-[(1R)-1-(2-chlorophenyl)ethoxycarbonylamino]-3-isoxazolyl}phenyl)hexanoic acid] | 114 | – | – |
| CC(=O)Oc1ccc(-c2nocc2NC(=O)OC(C)c2ccccc2Cl)cc1 (stereo not drawn) [Compound 22, 4-[4-({[1-(2-chlorophenyl)ethoxy]carbonyl}amino)-3-isoxazolyl]phenyl acetate] | 140 | – | – |
| C[C@@H](OC(=O)Nc1conc1-c1ccc(CCSCC(=O)O)cc1)c1ccccc1Cl [Compound 27, {[2-(4-{4-[(1R)-1-(2-chlorophenyl)ethoxycarbonylamino]-3-isoxazolyl}phenyl)ethyl]thio}acetic acid] | 19 | – | – |
| CC(=O)N[C@@H](CSCc1ccc(-c2nocc2NC(=O)O[C@H](C)c2ccccc2Br)cc1)C(=O)O [Compound 7, N-acetyl-S-(4-{4-[(1R)-1-(2-bromophenyl)-ethoxycarbonylamino]-3-isoxazolyl}benzyl)-L-cysteine] | 59 | – | – |
| C[C@@H](OC(=O)Nc1conc1-c1ccc(CS(=O)(=O)CCC(=O)O)cc1)c1ccccc1Br [Compound 12, 3-(4-{4-[(1R)-1-(2-bromophenyl)ethoxycarbonylamino]-3-isoxazolyl}benzylsulfonyl)propionic acid] | 68 | – | – |
| CC(OC(=O)Nc1conc1-c1ccc(NC(=O)CCC(=O)O)cc1)c1ccccc1Cl (stereo not drawn) [Compound 25, 4-[(4-{4-[1-(2-chlorophenyl)ethoxycarbonylamino]-3-isoxazolyl}phenyl)amino]-4-oxobutanoic acid] | 73 | – | – |
| C[C@@H](OC(=O)Nc1conc1-c1ccc(CSCCC(=O)O)cc1)c1ccccc1Br [Compound 6, 3-(4-{4-[(1R)-1-(2-bromophenyl)ethoxycarbonylamino]-3-isoxazolyl}benzylsulfanyl)propionic acid] | 22 | – | – |
| CC(=O)N[C@@H](CSCc1ccc(-c2nocc2NC(=O)OC(C)c2ccccc2Cl)cc1)C(=O)O (stereo partly drawn) [Compound 4, N-acetyl-S-(4-{4-[1-(2-chlorophenyl)ethoxycarbonylamino]-3-isoxazolyl}benzyl)-L-cysteine] | 65 | – | – |
| CC(OC(=O)Nc1conc1-c1ccc(CSCCC(=O)O)cc1)c1ccccc1Cl (stereo not drawn) [Compound 2, 3-(4-{4-[1-(2-chlorophenyl)ethoxycarbonylamino]-3-isoxazolyl}benzylsulfanyl)propionic acid] | 51 | – | – |
| CC(OC(=O)Nc1conc1-c1ccc(CCCCC(=O)O)cc1)c1ccccc1Cl (stereo not drawn) [Compound 19, 5-(4-{4-[1-(2-chlorophenyl)ethoxycarbonylamino]-3-isoxazolyl}phenyl)-4-pentanoic acid] | 47 | – | – |
| CC(OC(=O)Nc1conc1-c1ccc(CSCCC(=O)O)cc1)C1=C(Cl)CCCC1 (stereo not drawn) [Compound 10, 3-(4-{4-[1-(2-chloro-1-cyclohexenyl)ethoxycarbonylamino]-3-isoxazolyl}benzylsulfanyl)propionic acid] | 56 | – | – |
| CC(OC(=O)Nc1conc1-c1ccc(NC(=O)C[C@@H](O)C(=O)O)cc1)c1ccccc1Cl (stereo partly drawn) [Compound 21, 4-[(4-{4-[1-(2-chlorophenyl)ethoxycarbonylamino]-3-isoxazolyl}phenyl)amino]-(2R)-2-hydroxy-4-oxobutanoic acid] | 84 | – | – |
